The target of the assay is recombinant CpLDH protein (Cryptosporidium parvum, UniProt Q9GT92, F198L/K295E/R251K).
Take `Nc1nc(SCCc2ccccc2)c2[nH]cnc2n1` [NSC35866]: the “MEAN CpLDH INHIBITION (%)” value was -7.39%.
With `O=S1(=O)CCN(c2ccccc2CC(c2c[nH]c3ccccc23)c2c[nH]c3ccccc23)CC1` [NSC35949], the “MEAN CpLDH INHIBITION (%)” value was -34.03%.
Consider `C=C1C(=O)OC2CC1C(OC(C)=O)C/C(C)=C/CC/C(C)=C\CCC2(C)O` (stereo not drawn) [NSC36437], for which the “MEAN CpLDH INHIBITION (%)” value is -19.06%.
For `C[C@@H]1C[C@H]2OC(=O)[C@@]3(C)CCC[C@@](C)([C@@H]23)[C@@]1(O)CCc1ccoc1` [NSC36693], the “MEAN CpLDH INHIBITION (%)” value is recorded as -16.69%.
Turning to `Nc1nc(SCc2ccccc2Cl)c2[nH]cnc2n1` [NSC36826], the “MEAN CpLDH INHIBITION (%)” value was -1.63%.
In the case of `COc1nc(N)nc2nc[nH]c12` [NSC37364], the “MEAN CpLDH INHIBITION (%)” value is on record as -36.91%.
To `O=C1C(CN2CCCCC2)CCCC1CN1CCCCC1` (stereo not drawn) [NSC39202] belongs -37.56%; to `C[C@]12Cc3cnc(-c4ccccc4)nc3C[C@@H]1CC[C@@H]1[C@@H]2CC[C@@]2(C)[C@H]1CC[C@]2(C)O` [NSC39863], -20.27%; to `Cc1nc(Cl)c(C)c(Cl)n1` [NSC40212], -35.86%.
On to `O=C1C(Cl)=C(N2CCN(C3=C(Cl)C(=O)c4ccccc4C3=O)CC2)C(=O)c2ccccc21` [NSC40341], for which the “MEAN CpLDH INHIBITION (%)” value is reported as -22.69%.
For `Nc1nc(SCc2ccccc2Cl)c2ncn(C3OC(CO)C(O)C3O)c2n1` (stereo not drawn) [NSC40666], the “MEAN CpLDH INHIBITION (%)” value is listed as -57.18%.
On to `O=C(O)CC(S)C(=O)O` (stereo not drawn) [NSC41809], for which the “MEAN CpLDH INHIBITION (%)” value was -14.35%.
In the case of `COc1ccc(/C=C/c2cc(O)cc(O[C@@H]3O[C@H](CO)[C@@H](O)[C@H](O)[C@H]3O)c2)cc1O` [NSC43321], the “MEAN CpLDH INHIBITION (%)” value was -58.94%.
With `CCN(CC)c1ccc2cc3ccc(=[N+](CC)CC)cc-3oc2c1.[Cl-]` [NSC44690], the “MEAN CpLDH INHIBITION (%)” value is reported as -28.19%.
`Oc1ccc2ccccc2c1N=Nc1cccc2ccccc12` [NSC45575]: the “MEAN CpLDH INHIBITION (%)” value is given as -10.08%.
As for `CCCCCc1cc(/C=C2/N=C(c3ccc[nH]3)C=C2OC)[nH]c1C` [NSC47147], the “MEAN CpLDH INHIBITION (%)” value is reported as -37.67%.
For `CC(=O)O[C@]1(C(C)=O)CC[C@H]2[C@@H]3C[C@H](C)C4=CC(=O)C=C[C@]4(C)[C@@]3(F)[C@@H](O)C[C@@]21C` [NSC47438], the “MEAN CpLDH INHIBITION (%)” value was -57.83%.
To `CC(C)(C)c1ccc(O)c(CN(Cc2cc(C(C)(C)C)ccc2O)C2CCCCC2)c1` [NSC48151] belongs -66.17%; to `CC(=O)OC(C)(C)/C=C/C(=O)[C@](C)(O)[C@H]1[C@H](O)C[C@@]2(C)[C@@H]3CC=C4[C@@H](C[C@H](O)C(=O)C4(C)C)[C@]3(C)C(=O)C[C@]12C` [NSC49451], -57.10%.
As for `[Cl-].c1csc(C[N+]23CN4CN(CN(C4)C2)C3)c1` [NSC49660], the “MEAN CpLDH INHIBITION (%)” value was -3.53%.
`CN(C)[C@@H]1C(=O)C(C(N)=O)=C(O)[C@@]2(O)C(=O)C3=C(O)c4c(O)cccc4C[C@H]3C[C@@H]12` [NSC51812]: the “MEAN CpLDH INHIBITION (%)” value is listed as -26.06%.
To `C[C@@H]1C[C@H]2CC[C@H](O2)[C@H](C)C(=O)O[C@@H](C)C[C@@H]2CC[C@@H](O2)[C@@H](C)C(=O)O[C@H](C)C[C@H]2CC[C@H](O2)[C@H](C)C(=O)O[C@@H](C)C[C@@H]2CC[C@@H](O2)[C@@H](C)C(=O)O1` [NSC52141] belongs -100.84%; to `COc1ccc(-c2cc(=O)c3c(OC)c(OC)c(OC)cc3o2)cc1` [NSC53908], -32.76%; to `Nc1nc(-c2cccs2)cs1` [NSC54297], -31.48%.
Consider `COc1ccc2oc(-c3ccncc3)cc(=O)c2c1` [NSC54650], for which the “MEAN CpLDH INHIBITION (%)” value was -73.33%.
In the case of `O=C1/C(=C\c2cccs2)Oc2ccccc21` [NSC56544], the “MEAN CpLDH INHIBITION (%)” value was -23.78%.
For `COc1cccc(/C=N\NC(=O)C(C)SC(C)C(=O)N/N=C/c2cccc(OC)c2)c1` (stereo not drawn) [NSC56737], the “MEAN CpLDH INHIBITION (%)” value is listed as -38.88%.
For `CCCCCCCCCCCCCCCCOCC(O)CO` (stereo not drawn) [NSC59269], the “MEAN CpLDH INHIBITION (%)” value is recorded as 0.04%.
`O=[n+]1c2c(n([O-])c3ccccc31)-c1cccc3cccc-2c13` [NSC60309]: the “MEAN CpLDH INHIBITION (%)” value was -23.17%.
Regarding `CC[C@@]12CCCN3CC[C@]4(c5cccc(OC)c5N(C(C)=O)[C@@H]4CC1)[C@H]32` [NSC61811], the “MEAN CpLDH INHIBITION (%)” value is listed as -26.07%.
For `CC(C)[C@@H](C)/C=C/[C@@H](C)[C@H]1CC[C@H]2C3=CC=C4C[C@@H](O)CC[C@]4(C)[C@H]3CC[C@]12C` [NSC62791], the “MEAN CpLDH INHIBITION (%)” value is reported as -22.35%.
On to `CS(=O)(=O)c1nc(N)nc2nc[nH]c12` [NSC63446], for which the “MEAN CpLDH INHIBITION (%)” value is -4.16%.
In the case of `N#Cc1cn([C@@H]2O[C@H](CO)[C@@H](O)[C@H]2O)c2ncnc(N)c12` [NSC63701], the “MEAN CpLDH INHIBITION (%)” value was -0.31%.
For the compound `CC(C)CCCCCCCCCCCCC(=O)NCC(=O)NC1C(O)C(O)C(Nc2ncnc3nc[nH]c23)OC1C(O)CO` (stereo not drawn) [NSC65104], the “MEAN CpLDH INHIBITION (%)” value is recorded as -113.50%.
As for `NC(=O)c1cn([C@@H]2O[C@H](CO)[C@@H](O)[C@H]2O)c2ncnc(N)c12` [NSC65346], the “MEAN CpLDH INHIBITION (%)” value is on record as -11.87%.
Turning to `NC(=O)C#CC(N)=O` [NSC65381], the “MEAN CpLDH INHIBITION (%)” value worked out at 0%.
To `OC[C@H]1O[C@@H](n2cnc3cncnc32)[C@H](O)[C@@H]1O` [NSC65423] belongs -32.77%; to `O=C(Nc1ccc2c(c1)oc(=O)c1ccccc12)C(Cl)Cl` [NSC65937], -25.00%; to `CCCCC(/C=N/N=C(N)N)CC.Cc1cc(O)c(C(C)C)cc1S(=O)(=O)O` [NSC66300], -42.12%.
The value for `CCCc1c(Cl)nc(Cl)nc1Cl` [NSC66914] was -32.10%; that for `COc1cc(-c2cc(=O)c3c(OC)c(OC)c(OC)c(OC)c3o2)cc(OC)c1OC` [NSC67580] was -41.90%.
On to `O=C(O)c1ccccc1-c1ccccc1C(=O)Nc1ccc2c(c1)Cc1ccccc1-2` [NSC67690], for which the “MEAN CpLDH INHIBITION (%)” value was -56.08%.
To `COc1cc(C[C@H]2c3cc(OC)c(OC)cc3CCN2C)c(Oc2cc3c(cc2OC)-c2c(OC)c(OC)cc4c2[C@H](C3)N(C)CC4)cc1OC` [NSC68075] belongs -148.49%.
In the case of `[O-][n+]1ccccc1[S-].[O-][n+]1ccccc1[S-].[Zn+2]` [NSC68093], the “MEAN CpLDH INHIBITION (%)” value was -17.03%.
Consider `COc1ccc2[nH]c3c(C)c4ccncc4c(C)c3c2c1` [NSC69187], for which the “MEAN CpLDH INHIBITION (%)” value was -16.81%.
To `Cl.Cl.Cl.Cl.NCCCNCCCCNCCCN` [NSC69852] belongs -11.66%.
To `Nc1ncnc2c1ncn2C1OC(CO)C(O)C1O` (stereo not drawn) [NSC70422] belongs -12.00%; to `COc1ccc(OC)c(-c2cc(=O)c3c(OC)c(OC)c(OC)c(OC)c3o2)c1` [NSC71300], -64.35%; to `Nc1nc(N)c(-c2cccc(C(F)(F)F)c2)c(Cc2cccc(C(F)(F)F)c2)n1` [NSC71669], -53.065%.
For the compound `Nc1nc(=S)c2ncn(C3CC(O)C(CO)O3)c2[nH]1` (stereo not drawn) [NSC71851], the “MEAN CpLDH INHIBITION (%)” value is given as -30.23%.
To `Nc1ncnc2c1nnn2[C@@H]1O[C@H](CO)[C@@H](O)[C@H]1O` [NSC72961] belongs -2.40%.

These data come from article PMC6687188, “Novel lactate dehydrogenase inhibitors with in vivo efficacy against Cryptosporidium parvum” (PLoS Pathogens, 2019).
